Laboratory results published in patent US20040116523A1, “Use of c4-c10 acids for preventing gram-negative bacterial infections” (priority 2000, published 2004).

Legend:
[1] = tested on: iagA′-lacZ fusion (S. typhi strain Ty267); test: β-galactosidase activity of the iagA′-lacZ fusion in favourable LB medium; format: cell-based; conditions: for β-Galactosidase activity of the iagA′-lacZ fusion (Table VII): fatty acid as sodium salt, control 22022 ± 1177; for β-Galactosidase activity of the iagA′-lacZ fusion (Table VII) / inhibition of the expression of the iagA′-lacZ fusion in S. typhi (in words) / β-galactosidase activity of the iagA′-lacZ fusion (Table II): 5 mM in favourable LB medium, 6 hours at 37° C.; for inhibition of the expression of the iagA′-lacZ fusion in S. typhi (in words): sodium salt; for β-galactosidase activity of the iagA′-lacZ fusion (Table II): control 12134 ± 1811
Description: (§1) The favourable LB medium (high osmolarity and concentration of Ca^2+ions) was defined as being the standard LB medium modified so as to have a final NaCl concentration of 300 mM and a final Ca concentration of 5 mM.
Each of the strains described above was cultured at 37° C. on agar or in TCS broth. The P-galactosidase activity was determined using 4-methyl-umbelliferyl-p-D-galactopyranoside sold by the company Sigma, according to the technique of Klarsfeld et al. (Mol. Mibrobiol., 1994, 13, 585-597). The results, expressed in P-galactosidase units (fluorescence per hour and per OD600), represent the mean of the values obtained in at least three independent experiments. The standard deviations were less than 10% of the values presented. […]
The β-galactosidase activity of the iagA′-lacZ fusion was measured after incubation for 6 hours at 37° C. with shaking (200 rpm).
The S. typhi Ty267 strain (iagA′-lacZ fusion) was seeded into favourable LB medium and into favourable LB medium containing the fatty acid to be tested, in the form of its sodium salt, at the final concentration of 5 mM.

[2] = tested on: invF′-lacZ fusion (S. typhi strain Ty272); test: β-galactosidase activity of the invF′-lacZ fusion in favourable LB medium; format: cell-based; conditions: LB medium with 300 mM NaCl and 1 mM EGTA (depleted of divalent cations) versus favourable LB medium
Description: as §1
(§2) Each of the strains described above was cultured at 37° C. on agar or in TCS broth. The P-galactosidase activity was determined using 4-methyl-umbelliferyl-p-D-galactopyranoside sold by the company Sigma, according to the technique of Klarsfeld et al. (Mol. Mibrobiol., 1994, 13, 585-597). The results, expressed in P-galactosidase units (fluorescence per hour and per OD600), represent the mean of the values obtained in at least three independent experiments. The standard deviations were less than 10% of the values presented.
(§3) For this, the S. typhi strains Ty267, Ty272 and Ty277, which carry the iagA′-lacZ, invF′-lacZ and sipB′-lacZ fusions, respectively, (see Table I), were cultured in the favourable LB or unfavourable LB medium.
(§4) The action of these two compounds on the expression of the iagA′-lacZ, invF′-lacZ and sipB′-lacZ fusions was studied by measuring the β-galactosidase activity expressed by these fusions as a function of the time of culturing (samples removed every two hours).

[3] = tested on: sipB′-lacZ fusion (S. typhi strain Ty277); test: β-galactosidase activity of the sipB′-lacZ fusion in favourable LB medium; format: cell-based; conditions: LB medium with 300 mM NaCl and 1 mM EGTA (depleted of divalent cations) versus favourable LB medium
Description: as §1, §2, §3, §4

[4] = tested on: Gram-positive or Gram-negative microorganisms; conditions: acid pH (free acid form); cited from earlier work
[5] = tested on: Gram-positive or Gram-negative bacteria; conditions: in vitro, concentration not given; cited from earlier work
[6] = tested on: iagA′-lacZcat fusion in S. typhi strain Ty267; test: "Biotype 100" plate screen for carbon-based substrates that repress the iagA′-lacZcat fusion (β-galactosidase activity); format: cell-based; conditions: "Biotype 100" cupule, amount of substrate not known; favourable LB medium; 36 hours at 37° C.; control cupule without substrate 11 250
Description: as §2
A “Biotype 100”® plate sold by the company BioMerieux is composed of 100 microcupules. Each micro-cupule contains a dehydrated carbon-based substrate, with the exception of the first cupule, which is a control without substrate (the amount of dehydrated substrate per cupule is not given by the manufacturer).
In the context of the present example, these plates were used to search for carbon-based compounds which would block the expression of the invasion genes in Salmonella.
For this, the S. typhi strain Ty267, which is a derivative of the parental strain Ty2 carrying the iagA′-lacZcat transcriptional fusion (Table I), was cultured in TCS broth for 18 hours at 37° C. with shaking (200 rpm).
This culture was then diluted 100-fold in favourable LB medium (0.6 ml of culture for 60 ml of favourable LB), and then this suspension was used immediately to seed the 100 cupules of a “Biotype 100”® plate, in a proportion of 450 μl of suspension per cupule.
After incubation for 36 hours in an incubator at 37° C., the activity of the iagA′-lacZcat fusion in the Ty267 strain was determined for the culture of each cupule.
By comparing the value of the P-galactosidase activity measured in a cupule containing a carbon-based substrate with that of the control cupule without substrate, it was possible to investigate whether a substrate had no effect on, activated or repressed the expression of the iagA′-lacZcat fusion.
The S. typhi strain Ty267 (iagA′-lacZ fusion), suspended in the favourable LB medium, was used to seed the “Biotype 100”® plates.
The β-galactosidase activity expressed by the iagA′-lacZ fusion was determined for the culture in each cupule. With respect to the β-galactosidase activity measured in the control cupule without substrate (11 250 β-galactosidase units), no substrate caused an increase in the expression of the iagA′-lacZ fusion.

Salmonellae = test: Bactericidal or bacteriostatic effect on the Salmonellae at neutral pH; format: cell-based, Salmonella

Compound | β-Galactosidase activity of the iagA′-lacZ fusion (Table VII) [1] | inhibition of the expression of the iagA′-lacZ fusion in S. typhi (in words) [1] | also measured
CCCCCCC(N)C(=O)O (stereo not shown) [2-Aminocaprylic acid] | 33149 ± 2520 β-galactosidase units | totally blocks the inhibitory activity | 
CCCCCCC(O)C(=O)O (stereo not shown) [2-Hydroxycaprylic acid] | 225 ± 72 β-galactosidase units | does not modify the expression | 
NCCCCCCCC(=O)O [8-Aminocaprylic acid] | 18077 ± 1263 β-galactosidase units | totally blocks the inhibitory activity | 
O=C(O)CCCCCCCO [8-Hydroxycaprylic acid] | 593 ± 49 β-galactosidase units | does not modify the expression | 
CC(=O)O [Acetic acid] | 29265 ± 1692 β-galactosidase units | do not make it possible to inhibit | 
CCCC(=O)O [Butyric acid] | 21225 ± 1741 β-galactosidase units | do not make it possible to inhibit | 
CCCCCC(=O)O [Caproic acid] | 347 ± 21 β-galactosidase units | as strongly as sodium caprylate | 
O=C(O)CN(CCOCCOCCN(CC(=O)O)CC(=O)O)CC(=O)O [EGTA, ethylene glycol bis(β-aminoethyl ether) N,N,N′,N′-tetraacetic acid] |  |  | expression of the iagA′-lacZ fusion ([1]; LB medium with 300 mM NaCl and 1 mM EGTA (depleted of divalent cations) versus favourable LB medium): repression; expression of the invF′-lacZ fusion [2]: repression; expression of the sipB′-lacZ fusion [3]: repression
CCCCCCC(=O)O [Oenanthic acid] | 525 ± 43 β-galactosidase units | as strongly as sodium caprylate | 
CCCCCCCCC(=O)O [Pelargonic acid] | 383 ± 54 β-galactosidase units | as strongly as sodium caprylate | 
CCC(=O)O [Propionic acid] | 14650 ± 1333 β-galactosidase units | do not make it possible to inhibit | 
CCCCC(=O)O [Valeric acid] | 509 ± 91 β-galactosidase units | as strongly as sodium caprylate | 
CCCCCCCCCC(=O)O [decanoic acid] |  |  | bactericidal activity on a great variety of Gram-positive or Gram-negative microorganisms [4]: bactericidal activity
CCCCC/C=C\C/C=C\CCCCCCCC(=O)O [linoleic acid] |  |  | bacteriostatic or bactericidal effect on Gram-positive or Gram-negative bacteria [5]: very effective
CCCCCC(=O)O [n-hexanoic acid] |  |  | bactericidal activity on a great variety of Gram-positive or Gram-negative microorganisms [4]: bactericidal activity
CCCCCCCC/C=C\CCCCCCCC(=O)O [oleic acid] |  |  | bacteriostatic or bactericidal effect on Gram-positive or Gram-negative bacteria [5]: very effective
O=C([O-])CCc1ccccc1.[Na+] [sodium 3-phenylpropionate] |  | inhibit | β-galactosidase activity expressed by the iagA′-lacZ fusion in the cupule [6]: 166 β-galactosidase units; β-galactosidase activity of the iagA′-lacZ fusion (Table II) [1]: 297 ± 95 β-galactosidase units; bactericidal or bacteriostatic effect on the Salmonellae (Salmonellae): none of these compounds has any significant bactericidal or bacteriostatic effect
O=C([O-])CCCc1ccccc1.[Na+] [sodium 4-phenylbutyrate] |  | inhibited | β-galactosidase activity of the iagA′-lacZ fusion (Table II) [1]: 198 ± 32 β-galactosidase units; bactericidal or bacteriostatic effect on the Salmonellae (Salmonellae): none of these compounds has any significant bactericidal or bacteriostatic effect
O=C([O-])Cc1ccccc1.[Na+] [sodium phenylacetate] |  | inhibit | β-galactosidase activity expressed by the iagA′-lacZ fusion in the cupule [6]: 81 β-galactosidase units; β-galactosidase activity of the iagA′-lacZ fusion (Table II) [1]: 149 ± 24 β-galactosidase units; bactericidal or bacteriostatic effect on the Salmonellae (Salmonellae): none of these compounds has any significant bactericidal or bacteriostatic effect
